Experiments:
NCI-H2228 = test: Antiproliferative activity against human NCI-H2228 cells assessed as reduction in cell viability measured after 72 hrs by MTT assay; conditions: NCI-H2228, 72 h
HeLa = test: Antiproliferative activity against human HeLa cells assessed as reduction in cell viability measured after 72 hrs by MTT assay
NCI-H1299 = test: Antiproliferative activity against human NCI-H1299 cells assessed as reduction in cell viability measured after 72 hrs by MTT assay; conditions: NCI-H1299, 72 h
LO2 (Homo sapiens) = test: Cytotoxicity against human L02 cells assessed as reduction in cell viability measured after 72 hrs by MTT assay; conditions: l02, 72 h
NCI-H3122 [1] = test: Antiproliferative activity against human NCI-H3122 cells assessed as reduction in cell viability measured after 72 hrs by MTT assay; conditions: NCI-H3122, 72 h
A549 = test: Antiproliferative activity against human A549 cells assessed as reduction in cell viability measured after 72 hrs by MTT assay; conditions: A549, 72 h
[2] = target: von Hippel-Lindau disease tumor suppressor/ALK tyrosine kinase receptor/Nucleophosmin (Homo sapiens) (UniProt Q9UM73+P06748+P40337); test: Protac activity at VHL/NPM-ALK fusion protein in human SU-DHL-1 cells assessed as induction of NPM-ALK fusion protein degradation at 1 uM by Western blot analysis relative to control; type: cell-based
NCI-H3122 [3] = test: Antitumor activity against human NCI-H3122 cells xenografted in BALB/c nude mouse assessed as tumor growth inhibition at 25 mg/kg/day, ig administered for 15 days relative to control; type: functional; conditions: NCI-H3122, po, 360 h, time 15 day, read-out: TGI

Sequence of von Hippel-Lindau disease tumor suppressor/ALK tyrosine kinase receptor/Nucleophosmin (Homo sapiens) (P06748 whole entry partner, the tested form may be a part): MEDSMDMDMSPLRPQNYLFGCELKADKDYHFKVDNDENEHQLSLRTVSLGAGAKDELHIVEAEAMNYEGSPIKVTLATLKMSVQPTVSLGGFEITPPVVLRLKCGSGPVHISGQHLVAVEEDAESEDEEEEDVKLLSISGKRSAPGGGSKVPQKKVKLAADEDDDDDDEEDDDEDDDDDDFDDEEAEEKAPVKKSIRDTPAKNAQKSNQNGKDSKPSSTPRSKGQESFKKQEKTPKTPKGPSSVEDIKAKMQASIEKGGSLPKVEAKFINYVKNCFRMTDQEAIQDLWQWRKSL
Sequence of von Hippel-Lindau disease tumor suppressor/ALK tyrosine kinase receptor/Nucleophosmin (Homo sapiens) (P40337 whole entry partner, the tested form may be a part): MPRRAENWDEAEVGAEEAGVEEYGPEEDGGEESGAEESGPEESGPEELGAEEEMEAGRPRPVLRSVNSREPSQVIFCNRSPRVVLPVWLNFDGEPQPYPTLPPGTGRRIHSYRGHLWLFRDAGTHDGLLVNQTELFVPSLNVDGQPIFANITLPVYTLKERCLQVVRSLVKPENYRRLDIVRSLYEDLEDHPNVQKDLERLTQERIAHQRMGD
Sequence of von Hippel-Lindau disease tumor suppressor/ALK tyrosine kinase receptor/Nucleophosmin (Homo sapiens) (Q9UM73 19-1620 limits assumed): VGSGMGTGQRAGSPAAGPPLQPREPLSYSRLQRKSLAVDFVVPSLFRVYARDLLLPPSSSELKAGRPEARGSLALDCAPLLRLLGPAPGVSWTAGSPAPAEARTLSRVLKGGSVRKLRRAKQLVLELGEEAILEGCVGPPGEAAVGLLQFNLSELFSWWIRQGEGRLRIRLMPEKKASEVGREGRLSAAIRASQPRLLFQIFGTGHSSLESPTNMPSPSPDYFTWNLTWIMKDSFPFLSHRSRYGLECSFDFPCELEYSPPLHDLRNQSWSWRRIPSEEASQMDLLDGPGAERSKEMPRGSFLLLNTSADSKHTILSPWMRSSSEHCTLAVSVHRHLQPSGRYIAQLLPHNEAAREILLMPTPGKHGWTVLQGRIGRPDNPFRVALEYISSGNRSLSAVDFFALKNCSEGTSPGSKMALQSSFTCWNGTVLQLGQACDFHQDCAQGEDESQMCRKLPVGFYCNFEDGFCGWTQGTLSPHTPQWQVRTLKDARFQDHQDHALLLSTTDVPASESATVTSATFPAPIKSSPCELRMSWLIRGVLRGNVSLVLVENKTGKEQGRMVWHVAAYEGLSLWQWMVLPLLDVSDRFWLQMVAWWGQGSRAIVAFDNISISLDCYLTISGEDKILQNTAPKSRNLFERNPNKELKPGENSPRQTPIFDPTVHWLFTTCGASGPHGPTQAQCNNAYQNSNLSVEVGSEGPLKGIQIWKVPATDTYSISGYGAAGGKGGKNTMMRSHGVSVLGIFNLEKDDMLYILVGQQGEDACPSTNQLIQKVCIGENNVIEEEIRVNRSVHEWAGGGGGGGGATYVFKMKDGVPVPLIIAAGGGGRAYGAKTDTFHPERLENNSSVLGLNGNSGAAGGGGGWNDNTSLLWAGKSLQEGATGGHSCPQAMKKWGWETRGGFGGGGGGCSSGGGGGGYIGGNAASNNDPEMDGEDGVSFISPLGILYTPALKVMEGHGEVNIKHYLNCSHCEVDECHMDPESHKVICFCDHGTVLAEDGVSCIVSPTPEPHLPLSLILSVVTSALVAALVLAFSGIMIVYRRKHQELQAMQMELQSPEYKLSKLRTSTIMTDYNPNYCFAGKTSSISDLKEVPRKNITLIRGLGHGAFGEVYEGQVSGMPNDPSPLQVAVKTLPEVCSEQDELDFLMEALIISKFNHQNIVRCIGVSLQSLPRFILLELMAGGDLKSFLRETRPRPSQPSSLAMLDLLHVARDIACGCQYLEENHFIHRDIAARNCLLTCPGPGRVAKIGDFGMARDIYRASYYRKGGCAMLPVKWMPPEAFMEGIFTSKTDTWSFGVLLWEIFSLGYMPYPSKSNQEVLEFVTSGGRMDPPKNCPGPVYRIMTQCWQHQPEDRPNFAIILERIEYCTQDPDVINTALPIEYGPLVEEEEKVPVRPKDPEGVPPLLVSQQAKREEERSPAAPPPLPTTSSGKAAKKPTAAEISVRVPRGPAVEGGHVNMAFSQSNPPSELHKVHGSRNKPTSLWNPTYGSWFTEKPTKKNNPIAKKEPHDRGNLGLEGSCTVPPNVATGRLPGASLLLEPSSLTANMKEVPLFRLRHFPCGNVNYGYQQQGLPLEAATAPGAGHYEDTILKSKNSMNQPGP

Work on `Cc1cc(Nc2ncc(Cl)c(Nc3ccccc3S(=O)(=O)C(C)C)n2)c(OC(C)C)cc1C1CCN(CCC(=O)NCCOCCOCCNCC(=O)Nc2cccc3c2C(=O)N(C2CCC(=O)NC2=O)C3=O)CC1` (centres undefined) yielded an IC50 (NCI-H2228) of 4.51 µM, an IC50 (HeLa) of 5.86 µM and an IC50 (NCI-H1299) of 10.9 µM. For the same compound, the Activity (LO2 (Homo sapiens)) was “Toxic”, the IC50 (NCI-H3122 [1]) was 2340 nM and the IC50 (A549) was 5.81 µM.

`Cc1cc(Nc2ncc(Cl)c(Nc3ccccc3S(=O)(=O)C(C)C)n2)c(OC(C)C)cc1C1CCN(C(=O)CCCC(=O)N[C@H](C(=O)N2C[C@H](O)C[C@H]2C(=O)NCc2ccc(-c3scnc3C)cc2)C(C)(C)C)CC1` was tested, and the Activity [2] was > 90%.

In the case of `Cc1cc(Nc2ncc(Cl)c(Nc3ccccc3S(=O)(=O)C(C)C)n2)c(OC(C)C)cc1C1CCN(CCC(=O)NCCOCCOCCNc2cccc3c2C(=O)N(C2CCC(=O)NC2=O)C3=O)CC1` (centres undefined), the IC50 (NCI-H2228) is reported as 3.5 µM, the IC50 (HeLa) is reported as 2.23 µM and the IC50 (NCI-H1299) is reported as 7.59 µM. For the same compound, the Activity (LO2 (Homo sapiens)) was “Toxic”, the IC50 (NCI-H3122 [1]) was 700 nM and the IC50 (A549) was 2.6 µM.

`Cc1cc(Nc2ncc(Cl)c(Nc3ccccc3S(=O)(=O)C(C)C)n2)c(OC(C)C)cc1C1CCN(CCC(=O)NCCCCNCC(=O)Nc2cccc3c2C(=O)N(C2CCC(=O)NC2=O)C3=O)CC1` (centres undefined) was tested, and the IC50 (NCI-H2228) was 8.7 µM, the IC50 (HeLa) was 8.15 µM and the IC50 (NCI-H1299) was > 20 µM. The Activity (LO2 (Homo sapiens)) was “Toxic”, the IC50 (NCI-H3122 [1]) was 3520 nM and the IC50 (A549) was 13.4 µM.

`Cc1cc(Nc2ncc(Cl)c(Nc3ccccc3S(=O)(=O)C(C)C)n2)c(OC(C)C)cc1C1CCNCC1` [CERITINIB] gave an inhibition in vivo at 25 mg/kg/day (NCI-H3122 [3]) of 49%, an IC50 (NCI-H2228) of 1.3 µM and an IC50 (HeLa) of 0.94 µM. For the same compound, the IC50 (NCI-H1299) was 2.92 µM and the IC50 (A549) was 1.32 µM.

`Cc1cc(Nc2ncc(Cl)c(Nc3ccccc3S(=O)(=O)C(C)C)n2)c(OC(C)C)cc1C1CCN(CCC(=O)NCCCCCCNCC(=O)Nc2cccc3c2C(=O)N(C2CCC(=O)NC2=O)C3=O)CC1` (centres undefined) was tested, and the IC50 (NCI-H2228) was 3.1 µM, the IC50 (HeLa) was 4.36 µM and the IC50 (NCI-H1299) was > 20 µM. The Activity (LO2 (Homo sapiens)) was “Toxic”, the IC50 (NCI-H3122 [1]) was 1100 nM and the IC50 (A549) was 5.13 µM.

With `Cc1cc(Nc2ncc(Cl)c(Nc3ccccc3S(=O)(=O)C(C)C)n2)c(OC(C)C)cc1C1CCN(CCC(=O)NCCCCCCCCNCC(=O)Nc2cccc3c2C(=O)N(C2CCC(=O)NC2=O)C3=O)CC1` (centres undefined) the IC50 (NCI-H2228) was 15.1 µM, the IC50 (HeLa) was 7.67 µM and the IC50 (NCI-H1299) was > 20 µM. The Activity (LO2 (Homo sapiens)) was “Toxic”, the IC50 (NCI-H3122 [1]) was 2660 nM and the IC50 (A549) was > 20 µM.

`Cc1cc(Nc2ncc(Cl)c(Nc3ccccc3S(=O)(=O)C(C)C)n2)c(OC(C)C)cc1C1CCN(CCC(=O)NCCCCNC(=O)COc2cccc3c2C(=O)N(C2CCC(=O)NC2=O)C3=O)CC1` (centres undefined) was tested, and the IC50 (NCI-H2228) was > 20 µM, the IC50 (HeLa) was 6.99 µM and the IC50 (NCI-H1299) was 9.33 µM. For the same compound, the Activity (LO2 (Homo sapiens)) was “Toxic”, the IC50 (NCI-H3122 [1]) was 1300 nM and the IC50 (A549) was > 20 µM.

For `Cc1cc(Nc2ncc(Cl)c(Nc3ccccc3S(=O)(=O)C(C)C)n2)c(OC(C)C)cc1C1CCN(CCC(=O)NCCOCCNCCC(=O)Nc2cccc3c2C(=O)N(C2CCC(=O)NC2=O)C3=O)CC1` (centres undefined), the IC50 (NCI-H2228) was 5.2 µM, the IC50 (HeLa) was 7.98 µM and the IC50 (NCI-H1299) was 12.3 µM. For the same compound, the Activity (LO2 (Homo sapiens)) was “Toxic”, the IC50 (NCI-H3122 [1]) was 4860 nM and the IC50 (A549) was 10.9 µM.

Compound `Cc1cc(Nc2ncc(Cl)c(Nc3ccccc3S(=O)(=O)C(C)C)n2)c(OC(C)C)cc1C1CCN(CCC(=O)NCCOCCNCC(=O)Nc2cccc3c2C(=O)N(C2CCC(=O)NC2=O)C3=O)CC1` (centres undefined) has an IC50 (NCI-H2228) of 5.74 µM, an IC50 (HeLa) of 5.78 µM and an IC50 (NCI-H1299) of 7.23 µM. For the same compound, the Activity (LO2 (Homo sapiens)) was “Toxic”, the IC50 (NCI-H3122 [1]) was 1830 nM and the IC50 (A549) was 6.73 µM.
